Here are results for 1 compound from patent US8367648B2, “Substituted 16,17-annellated steroid compounds for use in womens healthcare” (MSD OSS B.V., priority 2009, dated 2013).

Where two headings read alike, the source gives them in different places.

By IC50 is commonly meant the concentration needed to halve the response being measured. For orientation: EC50 means the concentration giving half of the maximal effect.

Data set [1] addresses T1, ERα (Homo sapiens, UniProt P03372).
T1 sequence (P03372 1-595): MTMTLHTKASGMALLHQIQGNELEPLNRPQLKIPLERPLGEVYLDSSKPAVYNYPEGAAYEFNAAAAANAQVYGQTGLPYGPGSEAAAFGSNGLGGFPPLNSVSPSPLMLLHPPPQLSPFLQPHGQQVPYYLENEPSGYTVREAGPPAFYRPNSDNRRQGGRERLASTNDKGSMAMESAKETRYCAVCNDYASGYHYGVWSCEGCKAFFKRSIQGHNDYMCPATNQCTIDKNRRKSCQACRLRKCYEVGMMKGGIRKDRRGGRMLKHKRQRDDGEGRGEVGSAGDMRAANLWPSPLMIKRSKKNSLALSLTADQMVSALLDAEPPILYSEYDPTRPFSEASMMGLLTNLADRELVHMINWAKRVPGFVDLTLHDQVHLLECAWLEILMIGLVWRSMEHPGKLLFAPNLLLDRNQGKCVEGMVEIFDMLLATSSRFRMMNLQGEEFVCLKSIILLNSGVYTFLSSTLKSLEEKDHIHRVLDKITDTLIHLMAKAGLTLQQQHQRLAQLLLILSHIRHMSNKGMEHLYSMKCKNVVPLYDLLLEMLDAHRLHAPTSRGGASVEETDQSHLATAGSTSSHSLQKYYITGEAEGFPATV
The data set is described as follows: In vitro nuclear receptor profile, ERα antagonism. The format is cell-based. As to conditions: antagonist mode; read-out: ERα ant IC50.

Data set [2] addresses T2, ERβ (Homo sapiens, UniProt Q92731). Description: In vitro nuclear receptor profile, ERβ agonism. It is filed as cell-based. The note with it: agonist mode; read-out: ERβ ago EC50.
For data set [3], the target named is T1, ERα. The data set is described as follows: In vitro nuclear receptor profile, ERα agonism. The format is cell-based.
Data set [4] has as its target T3, progesterone receptor B (PR-B) (Homo sapiens, UniProt P06401).
T3 sequence (P06401 1-933): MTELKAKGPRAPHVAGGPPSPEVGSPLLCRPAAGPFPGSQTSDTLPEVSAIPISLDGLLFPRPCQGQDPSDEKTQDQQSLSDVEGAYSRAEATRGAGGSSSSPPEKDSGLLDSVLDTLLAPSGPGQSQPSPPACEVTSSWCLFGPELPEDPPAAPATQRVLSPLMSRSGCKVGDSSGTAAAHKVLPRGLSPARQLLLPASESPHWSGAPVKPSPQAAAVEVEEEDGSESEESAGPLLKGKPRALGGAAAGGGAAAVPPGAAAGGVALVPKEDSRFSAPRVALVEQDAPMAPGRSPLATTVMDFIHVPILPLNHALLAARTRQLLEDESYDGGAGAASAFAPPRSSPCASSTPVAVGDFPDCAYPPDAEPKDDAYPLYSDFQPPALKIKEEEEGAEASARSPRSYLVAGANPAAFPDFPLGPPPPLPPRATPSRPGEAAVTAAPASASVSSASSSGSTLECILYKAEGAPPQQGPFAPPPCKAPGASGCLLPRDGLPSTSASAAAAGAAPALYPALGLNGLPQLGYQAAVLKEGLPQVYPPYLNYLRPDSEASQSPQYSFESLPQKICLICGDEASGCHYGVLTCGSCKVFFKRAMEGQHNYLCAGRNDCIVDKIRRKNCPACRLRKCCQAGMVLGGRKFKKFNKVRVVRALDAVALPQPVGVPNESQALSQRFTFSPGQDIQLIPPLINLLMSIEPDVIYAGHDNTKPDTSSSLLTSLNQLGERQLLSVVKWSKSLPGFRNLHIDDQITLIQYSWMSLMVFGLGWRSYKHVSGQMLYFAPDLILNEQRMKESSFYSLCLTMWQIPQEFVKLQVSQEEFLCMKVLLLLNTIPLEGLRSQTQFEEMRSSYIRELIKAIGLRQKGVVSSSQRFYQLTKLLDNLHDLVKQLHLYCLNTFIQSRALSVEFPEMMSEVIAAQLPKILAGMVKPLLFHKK
Description: In vitro nuclear receptor profile, PR-B antagonism. The format is cell-based.

Data set [5] addresses T2, ERβ. Description: In vitro nuclear receptor profile, ERβ antagonism. The format is cell-based.
Data set [6] concerns the target T3, progesterone receptor B (PR-B). The data set is described as follows: In vitro nuclear receptor profile, PR-B agonism. The note with it: agonist mode; read-out: PR-B ago EC50. It is filed as cell-based.
For data set [7] the following is noted: female, rat, in vivo, po.
Data set [8] concerns the target T4, PR-A (Homo sapiens, UniProt P06401).
T4 sequence (P06401 1-769 isoform P06401-2): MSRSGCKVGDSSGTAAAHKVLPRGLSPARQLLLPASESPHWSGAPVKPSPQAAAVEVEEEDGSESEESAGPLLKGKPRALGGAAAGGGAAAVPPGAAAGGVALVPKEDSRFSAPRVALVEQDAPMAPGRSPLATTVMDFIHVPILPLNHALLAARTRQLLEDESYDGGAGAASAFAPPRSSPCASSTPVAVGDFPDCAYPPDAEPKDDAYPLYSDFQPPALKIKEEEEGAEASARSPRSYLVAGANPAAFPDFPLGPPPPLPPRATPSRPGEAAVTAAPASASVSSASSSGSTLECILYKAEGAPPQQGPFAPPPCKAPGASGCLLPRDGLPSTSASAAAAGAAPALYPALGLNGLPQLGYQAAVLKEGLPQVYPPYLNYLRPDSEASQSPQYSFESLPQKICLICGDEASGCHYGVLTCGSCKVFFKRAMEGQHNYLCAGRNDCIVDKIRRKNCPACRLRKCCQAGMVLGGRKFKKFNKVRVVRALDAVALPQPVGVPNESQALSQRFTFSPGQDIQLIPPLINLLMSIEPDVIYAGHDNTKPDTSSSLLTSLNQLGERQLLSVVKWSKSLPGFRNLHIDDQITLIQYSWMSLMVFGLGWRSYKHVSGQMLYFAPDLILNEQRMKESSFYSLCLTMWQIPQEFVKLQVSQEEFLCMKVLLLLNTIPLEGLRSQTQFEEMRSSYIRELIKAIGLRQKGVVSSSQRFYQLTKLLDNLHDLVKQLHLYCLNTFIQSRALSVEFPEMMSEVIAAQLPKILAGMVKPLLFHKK
Description: In vitro nuclear receptor profile, PR-A agonism. As to conditions: agonist mode; read-out: PR-A ago EC50. The format is cell-based.

Data set [9] has as its target T4, PR-A. The data set is described as follows: In vitro nuclear receptor profile, PR-A antagonism. It is filed as cell-based.

T2 sequence (Q92731 whole entry): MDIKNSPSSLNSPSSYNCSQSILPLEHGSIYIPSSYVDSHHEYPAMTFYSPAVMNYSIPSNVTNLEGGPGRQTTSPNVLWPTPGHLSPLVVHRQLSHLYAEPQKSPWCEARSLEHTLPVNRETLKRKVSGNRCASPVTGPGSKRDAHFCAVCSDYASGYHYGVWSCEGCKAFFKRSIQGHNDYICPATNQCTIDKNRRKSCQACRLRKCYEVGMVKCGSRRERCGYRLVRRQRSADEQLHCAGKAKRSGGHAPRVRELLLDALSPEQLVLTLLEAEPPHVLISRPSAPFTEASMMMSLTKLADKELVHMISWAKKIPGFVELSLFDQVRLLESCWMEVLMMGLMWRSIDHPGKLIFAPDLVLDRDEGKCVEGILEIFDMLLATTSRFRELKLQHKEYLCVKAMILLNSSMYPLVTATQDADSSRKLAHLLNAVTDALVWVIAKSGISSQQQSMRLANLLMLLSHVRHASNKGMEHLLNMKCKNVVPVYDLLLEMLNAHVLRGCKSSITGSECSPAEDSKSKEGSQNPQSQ

As for `CCC[C@@H]1Cc2cc(O)ccc2[C@H]2CC[C@@]3(C)[C@@H](C[C@H]4CC[C@H](O)C[C@]43O)[C@H]12` [Org 41621, (7α,16β,17α,22β)-7-propyl-16,24-cyclo-19,21-dinorchola-1,3,5(10)-triene-3,17,22-triol, reference compound], the half-maximal inhibitory concentration (IC50) on ERα [1] was above 1000 nM; in data set [4] (antagonist mode, read-out: PR-B ant IC50), 20.8 nM; at ERβ [5] (antagonist mode, read-out: ERβ ant IC50) it was 3.8 nM; on PR-A [9] (antagonist mode, read-out: PR-A ant IC50) it was 58.3 nM. Further, the EC50 at ERβ [2] was above 100 nM; on ERα [3] (agonist mode, read-out: ERα ago EC50), 0.28 nM; in data set [6] it was above 100 nM; on PR-A [8], above 100 nM. For the same compound, the ERα ago eff on ERα [3] (agonist efficacy) is 0.95. In [4] (antagonist efficacy), the PR-B ant anteff turned out to be 0.74. Also, the ERβ ant anteff at ERβ [5] (antagonist efficacy) is 0.89. Moreover, the “major fetal abnormalities (ribs, humerus, scapula)” value is reported as 3/273 in [7] (0.09 mg/kg) and 11/216 in [7] (0.15 mg/kg). Further, the post implantation loss is recorded as 15% in data set [7] (0.09 mg/kg) and 24% in [7] (0.15 mg/kg). Moreover, the PR-A ant anteff on PR-A [9] (antagonist efficacy) stood at 0.85.
